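Step 1: Grow cells in 96-well plates. Step 2: Expose to compound for 48 hours at 5 concentrations. Step 3: Interpolate endpoints linearly; if unreached, use highest concentration. At the GI50, growth is halved. TGI: total growth inhibition.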
Columns and labels:
Experiment in all cases: DTP human tumour cell line panel, 48 h
786-0 renal = tested on: 786-0 renal
A498 renal = tested on: A498 renal
A549 NSCLC = tested on: A549 NSCLC
ACHN renal = tested on: ACHN renal
BT-549 breast = tested on: BT-549 breast
CAKI-1 renal = tested on: CAKI-1 renal
CCRF-CEM leukemia = tested on: CCRF-CEM leukemia
COLO 205 colon = tested on: COLO 205 colon
DU-145 prostate = tested on: DU-145 prostate
EKVX NSCLC = tested on: EKVX NSCLC
HCC-2998 colon = tested on: HCC-2998 colon
HCT-116 colon = tested on: HCT-116 colon
HCT-15 colon = tested on: HCT-15 colon
HL-60(TB) leukemia = tested on: HL-60(TB) leukemia
HOP-62 NSCLC = tested on: HOP-62 NSCLC
HOP-92 NSCLC = tested on: HOP-92 NSCLC
HS 578T breast = tested on: HS 578T breast
HT29 colon = tested on: HT29 colon
IGROV1 ovarian = tested on: IGROV1 ovarian
K-562 leukemia = tested on: K-562 leukemia
KM12 colon = tested on: KM12 colon
LOX IMVI melanoma = tested on: LOX IMVI melanoma
M14 melanoma = tested on: M14 melanoma
MALME-3M melanoma = tested on: MALME-3M melanoma
MCF7 breast = tested on: MCF7 breast
MDA-MB-231 breast = tested on: MDA-MB-231 breast
MDA-MB-435 = tested on: MDA-MB-435
MDA-MB-468 breast = tested on: MDA-MB-468 breast
MOLT-4 leukemia = tested on: MOLT-4 leukemia
NCI-H226 lung = tested on: NCI-H226 lung
NCI-H23 lung = tested on: NCI-H23 lung
NCI-H460 lung = tested on: NCI-H460 lung
NCI-H522 lung = tested on: NCI-H522 lung
NCI/ADR-RES ovarian = tested on: NCI/ADR-RES ovarian
OVCAR-3 ovarian = tested on: OVCAR-3 ovarian
OVCAR-4 ovarian = tested on: OVCAR-4 ovarian
OVCAR-5 ovarian = tested on: OVCAR-5 ovarian
OVCAR-8 ovarian = tested on: OVCAR-8 ovarian
PC-3 prostate = tested on: PC-3 prostate
RPMI-8226 leukemia = tested on: RPMI-8226 leukemia
RXF 393 renal = tested on: RXF 393 renal
SF-268 CNS = tested on: SF-268 CNS
SF-295 CNS = tested on: SF-295 CNS
SF-539 CNS = tested on: SF-539 CNS
SK-MEL-2 melanoma = tested on: SK-MEL-2 melanoma
SK-MEL-28 melanoma = tested on: SK-MEL-28 melanoma
SK-MEL-5 melanoma = tested on: SK-MEL-5 melanoma
SK-OV-3 ovarian = tested on: SK-OV-3 ovarian
SN12C renal = tested on: SN12C renal
SNB-19 CNS = tested on: SNB-19 CNS
SNB-75 CNS = tested on: SNB-75 CNS
SW-620 colon = tested on: SW-620 colon
T-47D breast = tested on: T-47D breast
TK-10 renal = tested on: TK-10 renal
U251 CNS = tested on: U251 CNS
UACC-257 melanoma = tested on: UACC-257 melanoma
UACC-62 melanoma = tested on: UACC-62 melanoma
UO-31 renal = tested on: UO-31 renal

Work on `CN(C)CCCNC(=O)c1cc(NC(=O)c2cc(NC(=O)c3ccc(C#Cc4ccccc4)cc3)cn2C)cn1C` yielded a GI50 (786-0 renal) of 2.65 µM, a TGI (786-0 renal) of 4.9 µM and a GI50 (A498 renal) of 3 µM. The TGI (A498 renal) was 8.96 µM, the GI50 (A549 NSCLC) was 2.56 µM and the TGI (A549 NSCLC) was 5.38 µM. For the same compound, the GI50 (ACHN renal) was 2.74 µM, the TGI (ACHN renal) was 6 µM and the GI50 (BT-549 breast) was 1.79 µM. For the same compound, the TGI (BT-549 breast) was 3.94 µM, the GI50 (CAKI-1 renal) was 2.85 µM and the TGI (CAKI-1 renal) was 7.97 µM. The GI50 (CCRF-CEM leukemia) was 1.66 µM, the TGI (CCRF-CEM leukemia) was 6.46 µM and the GI50 (COLO 205 colon) was 3.17 µM. The TGI (COLO 205 colon) was 5.82 µM, the GI50 (DU-145 prostate) was 2.55 µM and the TGI (DU-145 prostate) was 5.18 µM. It also gave a GI50 (EKVX NSCLC) of 2.49 µM, a TGI (EKVX NSCLC) of 5.18 µM and a GI50 (HCC-2998 colon) of 2.34 µM. For the same compound, the TGI (HCC-2998 colon) was 4.42 µM, the GI50 (HCT-116 colon) was 2.1 µM and the TGI (HCT-116 colon) was 4.46 µM. It also gave a GI50 (HCT-15 colon) of 2.23 µM, a TGI (HCT-15 colon) of 4.48 µM and a GI50 (HL-60(TB) leukemia) of 2.62 µM. It also gave a TGI (HL-60(TB) leukemia) of 7.14 µM, a GI50 (HOP-62 NSCLC) of 2.85 µM and a TGI (HOP-62 NSCLC) of 5.42 µM. It also gave a GI50 (HOP-92 NSCLC) of 0.611 µM, a TGI (HOP-92 NSCLC) of 3.47 µM and a GI50 (HS 578T breast) of 3.7 µM. For the same compound, the TGI (HS 578T breast) was 10 µM, the GI50 (HT29 colon) was 2.56 µM and the TGI (HT29 colon) was 6.64 µM. The GI50 (IGROV1 ovarian) was 4.95 µM, the TGI (IGROV1 ovarian) was over 15.3 µM and the GI50 (K-562 leukemia) was 2.74 µM. The TGI (K-562 leukemia) was 7.99 µM, the GI50 (KM12 colon) was 2.93 µM and the TGI (KM12 colon) was 6.81 µM. It also gave a GI50 (LOX IMVI melanoma) of 2.24 µM, a TGI (LOX IMVI melanoma) of 4.31 µM and a GI50 (M14 melanoma) of 2.26 µM. The TGI (M14 melanoma) was 4.54 µM, the GI50 (MALME-3M melanoma) was 2.11 µM and the TGI (MALME-3M melanoma) was 4.22 µM. It also gave a GI50 (MCF7 breast) of 0.58 µM, a TGI (MCF7 breast) of 2.38 µM and a GI50 (MDA-MB-231 breast) of 2.84 µM. The TGI (MDA-MB-231 breast) was 5.03 µM, the GI50 (MDA-MB-435) was 2.21 µM and the TGI (MDA-MB-435) was 4.39 µM. For the same compound, the GI50 (MDA-MB-468 breast) was 2.34 µM, the TGI (MDA-MB-468 breast) was 4.43 µM and the GI50 (MOLT-4 leukemia) was 2.4 µM. The TGI (MOLT-4 leukemia) was 7.24 µM, the GI50 (NCI-H226 lung) was 2.28 µM and the TGI (NCI-H226 lung) was 4.79 µM. For the same compound, the GI50 (NCI-H23 lung) was 2.76 µM, the TGI (NCI-H23 lung) was 5.37 µM and the GI50 (NCI-H460 lung) was 2.76 µM. For the same compound, the TGI (NCI-H460 lung) was 6.04 µM, the GI50 (NCI-H522 lung) was 2.56 µM and the TGI (NCI-H522 lung) was 5.16 µM. It also gave a GI50 (NCI/ADR-RES ovarian) of 2.85 µM, a TGI (NCI/ADR-RES ovarian) of 7.02 µM and a GI50 (OVCAR-3 ovarian) of 1.83 µM. It also gave a TGI (OVCAR-3 ovarian) of 4.13 µM, a GI50 (OVCAR-4 ovarian) of 4.21 µM and a TGI (OVCAR-4 ovarian) of over 15.3 µM. It also gave a GI50 (OVCAR-5 ovarian) of 3.17 µM, a TGI (OVCAR-5 ovarian) of 7.43 µM and a GI50 (OVCAR-8 ovarian) of 2.57 µM. The TGI (OVCAR-8 ovarian) was 6.63 µM, the GI50 (PC-3 prostate) was 2.4 µM and the TGI (PC-3 prostate) was 5.38 µM. It also gave a GI50 (RPMI-8226 leukemia) of 1.76 µM, a TGI (RPMI-8226 leukemia) of 5.89 µM and a GI50 (RXF 393 renal) of 1.61 µM. For the same compound, the TGI (RXF 393 renal) was 3.84 µM, the GI50 (SF-268 CNS) was 2.56 µM and the TGI (SF-268 CNS) was 5.65 µM. It also gave a GI50 (SF-295 CNS) of 2.53 µM, a TGI (SF-295 CNS) of 4.97 µM and a GI50 (SF-539 CNS) of 2.48 µM. For the same compound, the TGI (SF-539 CNS) was 4.7 µM, the GI50 (SK-MEL-2 melanoma) was 2.91 µM and the TGI (SK-MEL-2 melanoma) was 5.98 µM. It also gave a GI50 (SK-MEL-28 melanoma) of 2.4 µM, a TGI (SK-MEL-28 melanoma) of 4.47 µM and a GI50 (SK-MEL-5 melanoma) of 2.34 µM. For the same compound, the TGI (SK-MEL-5 melanoma) was 4.37 µM, the GI50 (SK-OV-3 ovarian) was 5.58 µM and the TGI (SK-OV-3 ovarian) was over 15.3 µM. For the same compound, the GI50 (SN12C renal) was 2.03 µM, the TGI (SN12C renal) was 4.09 µM and the GI50 (SNB-19 CNS) was 2.84 µM. For the same compound, the TGI (SNB-19 CNS) was 5.01 µM, the GI50 (SNB-75 CNS) was 2.48 µM and the TGI (SNB-75 CNS) was over 15.3 µM. The GI50 (SW-620 colon) was 2.87 µM, the TGI (SW-620 colon) was 6.02 µM and the GI50 (T-47D breast) was 2.07 µM. The TGI (T-47D breast) was 4.94 µM, the GI50 (TK-10 renal) was 3.33 µM and the TGI (TK-10 renal) was 9.03 µM. It also gave a GI50 (U251 CNS) of 2.45 µM, a TGI (U251 CNS) of 5.93 µM and a GI50 (UACC-257 melanoma) of 2.12 µM. The TGI (UACC-257 melanoma) was 4.77 µM, the GI50 (UACC-62 melanoma) was 1.93 µM and the TGI (UACC-62 melanoma) was 4.07 µM. The GI50 (UO-31 renal) was 3.08 µM and the TGI (UO-31 renal) was 12.2 µM.

— PubChem BioAssay (NCI)
